From EP3046573B1, “AMYLIN ANALOGUES” (Zealand Pharma A/S, priority 2013, dated 2015)
Numbered stars: 1 amine (or outer) side, 2 acyl side, 3 side chain; on linkers, the order of the positions; unused ones are H or OH. Bridge positions count the residues as written; N and C are the ends. Square brackets hold non-standard residues; d marks the D form. Peptide text beside a SMILES is read from it. * marks the point of attachment. C20 diacid = O=C(O)CCCCCCCCCCCCCCCCCCC(=O)*; γGlu = O=C(O)[C@H](CCC(=O)[*:2])N[*:1]; NMeI = CC[C@H](C)[C@H](NC)C(=O)O; Sar = CNCC(=O)O

Columns and labels:
[1] = target: T1, human calcitonin receptor (hCTR2) (Homo sapiens, UniProt P30988); experiment: hCTR2 assay: induction of cAMP (AlphaScreen cAMP Assay kit) in COS7 cells expressing hCTR2; assay type: cell-based; conditions: cAMP induction in COS7 cells expressing hCTR2; average of a minimum of 3 determinations; read-out: hCTR2 EC50
T1 construct: expressed in transfected cells
T1 sequence (P30988 25-474): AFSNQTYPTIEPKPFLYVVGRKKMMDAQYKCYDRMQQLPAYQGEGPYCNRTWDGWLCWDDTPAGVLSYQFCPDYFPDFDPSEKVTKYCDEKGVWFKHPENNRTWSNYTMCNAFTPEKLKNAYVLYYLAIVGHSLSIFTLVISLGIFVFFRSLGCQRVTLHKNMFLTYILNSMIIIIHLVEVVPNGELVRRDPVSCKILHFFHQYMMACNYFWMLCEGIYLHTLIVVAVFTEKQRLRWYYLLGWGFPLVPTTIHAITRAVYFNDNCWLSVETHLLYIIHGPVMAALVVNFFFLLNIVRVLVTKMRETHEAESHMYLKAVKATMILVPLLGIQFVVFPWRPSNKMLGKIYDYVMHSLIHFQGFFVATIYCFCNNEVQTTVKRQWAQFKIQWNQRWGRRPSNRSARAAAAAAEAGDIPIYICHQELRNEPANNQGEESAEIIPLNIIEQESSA
In short: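 Cells were seeded one day ahead, washed, then exposed to rising peptide concentrations for 15 min at 37° C in the presence of 100 µM IBMX. After lysis for 10 min at room temperature, cAMP was quantified by AlphaScreen and EC50 values derived by 4PL fitting.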

[2] = target: T2, human amylin receptor 3 (hAMYR3) consisting of hCTR2 co-expressed with human Receptor Activity Modifying Protein 3 (hRAMP3) (Homo sapiens, UniProt O60896+P30988); experiment: hAMYR3 assay: induction of cAMP (AlphaScreen cAMP Assay kit) in COS7 cells expressing hAMYR3; assay type: cell-based; conditions: cAMP induction in COS7 cells expressing hAMYR3; average of a minimum of 3 determinations; read-out: hAMY R3 EC50
T2 construct: expressed in transfected cells
T2 sequence (P30988 25-474): T1 sequence (P30988 25-474)
T2 sequence (O60896 24-148 partner): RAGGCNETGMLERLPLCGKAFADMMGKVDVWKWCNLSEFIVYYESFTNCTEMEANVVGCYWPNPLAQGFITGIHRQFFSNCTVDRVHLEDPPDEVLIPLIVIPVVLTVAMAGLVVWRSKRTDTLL
In short: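 cAMP accumulation read by AlphaScreen in lysates of RAMP-naive COS7 cells stably transfected with hCTR2 plus hRAMP3. Cells exposed to peptide dilutions for 15 min, 37° C, with 100 µM IBMX; 4PL fitting gave EC50 and efficacy relative to pramlintide.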

[3] = Solubility assessment (turbidity absorbance at 325 nm); assay type: physicochemical; conditions: stock 2 mg/ml diluted 1:1, ambient temperature (typically 25°C), n=1; for Solubility, Acetate buffer pH 4: 100 mM acetate buffer pH 4.0; for Solubility, Acetate buffer pH 5: 100 mM acetate buffer pH 5.0; for Solubility, Histidine buffer pH 6: 100 mM histidine buffer pH 6.0; for Solubility, Histidine buffer pH 7: 100 mM histidine buffer pH 7.0; for Solubility, Phosphate buffer pH 6: 100 mM phosphate buffer pH 6.0; for Solubility, Phosphate buffer pH 7: 100 mM phosphate buffer pH 7.0; for Solubility, Phosphate buffer pH 7.5: 100 mM phosphate buffer pH7.5
In short: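 Turbidity read as absorbance at 325 nm (also 280 nm), single samples at ambient temperature (typically 25°C); ≤ 0.02 units counts as ≥ 1 mg/ml soluble. Samples made by 1:1 dilution of a 2 mg/ml acidic stock into 100 mM acetate, histidine or phosphate buffers, pH 4.0–7.5.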

Compound	EC50 [1] [nM]	EC50 [2] [nM]	Solubility, Acetate buffer pH 4 [3]	Solubility, Acetate buffer pH 5 [3]	Solubility, Histidine buffer pH 6 [3]	Solubility, Histidine buffer pH 7 [3]	Solubility, Phosphate buffer pH 6 [3]	Solubility, Phosphate buffer pH 7 [3]	Solubility, Phosphate buffer pH 7.5 [3]
CC[C@H](C)[C@@H](C(=O)N[C@@H](CC(C)C)C(=O)N[C@@H](CO)C(=O)N[C@@H](CO)C(=O)N[C@H](C(=O)N[C@@H](CCC(=O)O)C(=O)N[C@H](C(=O)NCC(=O)N[C@@H](CO)C(=O)N[C@@H](CCC(=O)O)C(=O)N[C@H](C(=O)N1CCC[C@H]1C(N)=O)[C@@H](C)O)C(C)C)[C@@H](C)O)N(C)C(=O)[C@H](C)NC(=O)CN(C)C(=O)[C@H](Cc1ccccc1)NC(=O)[C@H](CO)NC(=O)[C@H](CO)NC(=O)[C@H](CO)NC(=O)[C@H](CO)NC(=O)[C@H](CCCNC(=N)N)NC(=O)[C@H](Cc1c[nH]cn1)NC(=O)[C@H](CC(C)C)NC(=O)[C@H](Cc1ccccc1)NC(=O)[C@H](CCC(=O)O)NC(=O)[C@H](C)NC(=O)[C@H](CC(C)C)NC(=O)[C@H](CCCNC(=N)N)NC(=O)[C@H](CCC(=O)O)NC(=O)[C@@H](NC(=O)[C@H](C)NC(=O)[C@@H]1CSSC[C@H](NC(=O)[C@H](CCCNC(=N)N)NC(=O)CC[C@H](NC(=O)CCCCCCCCCCCCCCCCCCC(=O)O)C(=O)O)C(=O)N[C@@H](CC(=O)O)C(=O)N[C@@H]([C@@H](C)O)C(=O)N[C@@H](C)C(=O)N[C@@H]([C@@H](C)O)C(=O)N1)[C@@H](C)O [Compound 137, [19CD]-isoGlu-RC()DTATC()ATERLAEFLHRSSSSF-Gly(Me)-A-Ile(Me)-LSSTEVGSETP-NH2] ({C20 diacid-γGlu}-RCDTATCATERLAEFLHRSSSSF[Sar]A[NMeI]LSSTEVGSETP-NH2; disulfide 2-7)	0.24	0.86	SS (SS indicates solubility ≥ 1mg/ml)	SS (SS indicates solubility ≥ 1mg/ml)	SS (SS indicates solubility ≥ 1mg/ml)	SS (SS indicates solubility ≥ 1mg/ml)	SS (SS indicates solubility ≥ 1mg/ml)	SS (SS indicates solubility ≥ 1mg/ml)	SS (SS indicates solubility ≥ 1mg/ml)
CC[C@H](C)[C@@H](C(=O)N[C@@H](CC(C)C)C(=O)N[C@@H](CO)C(=O)N[C@@H](CO)C(=O)N[C@H](C(=O)N[C@@H](CCC(=O)O)C(=O)N[C@H](C(=O)NCC(=O)N[C@@H](CO)C(=O)N[C@@H](CCC(=O)O)C(=O)N[C@H](C(=O)N1CCC[C@H]1C(N)=O)[C@@H](C)O)C(C)C)[C@@H](C)O)N(C)C(=O)[C@H](C)NC(=O)CN(C)C(=O)[C@H](Cc1ccccc1)NC(=O)[C@H](CO)NC(=O)[C@H](CO)NC(=O)[C@H](CO)NC(=O)[C@H](CO)NC(=O)[C@H](CCCNC(=N)N)NC(=O)[C@H](Cc1c[nH]cn1)NC(=O)[C@H](CC(C)C)NC(=O)[C@H](Cc1ccccc1)NC(=O)[C@H](CCC(=O)O)NC(=O)[C@H](C)NC(=O)[C@H](CC(C)C)NC(=O)[C@H](CCCNC(=N)N)NC(=O)[C@H](CO)NC(=O)[C@@H](NC(=O)[C@H](C)NC(=O)[C@@H]1CSSC[C@H](NC(=O)[C@H](CCCNC(=N)N)NC(=O)CC[C@H](NC(=O)CCCCCCCCCCCCCCCCCCC(=O)O)C(=O)O)C(=O)N[C@@H](CC(=O)O)C(=O)N[C@@H]([C@@H](C)O)C(=O)N[C@@H](C)C(=O)N[C@@H]([C@@H](C)O)C(=O)N1)[C@@H](C)O [Compound 138, [19CD]-isoGlu-RC()DTATC()ATSRLAEFLHRSSSSF-Gly(Me)-A-Ile(Me)-LSSTEVGSETP-NH2] ({C20 diacid-γGlu}-RCDTATCATSRLAEFLHRSSSSF[Sar]A[NMeI]LSSTEVGSETP-NH2; disulfide 2-7)	0.23	0.34	SS (SS indicates solubility ≥ 1mg/ml)	SS (SS indicates solubility ≥ 1mg/ml)	SS (SS indicates solubility ≥ 1mg/ml)	SS (SS indicates solubility ≥ 1mg/ml)	SS (SS indicates solubility ≥ 1mg/ml)	SS (SS indicates solubility ≥ 1mg/ml)	SS (SS indicates solubility ≥ 1mg/ml)
CC[C@H](C)[C@@H](C(=O)N[C@@H](CC(C)C)C(=O)N[C@@H](CO)C(=O)N[C@@H](CO)C(=O)N[C@H](C(=O)N[C@@H](CCC(=O)O)C(=O)N[C@H](C(=O)NCC(=O)N[C@@H](CO)C(=O)N[C@@H](CCC(=O)O)C(=O)N[C@H](C(=O)N1CCC[C@H]1C(N)=O)[C@@H](C)O)C(C)C)[C@@H](C)O)N(C)C(=O)[C@H](C)NC(=O)CN(C)C(=O)[C@H](Cc1ccccc1)NC(=O)[C@H](CO)NC(=O)[C@H](CO)NC(=O)[C@H](CO)NC(=O)[C@H](CO)NC(=O)[C@H](CCCNC(=N)N)NC(=O)[C@H](Cc1c[nH]cn1)NC(=O)[C@H](CC(C)C)NC(=O)[C@H](Cc1ccccc1)NC(=O)[C@H](CCC(=O)O)NC(=O)[C@H](C)NC(=O)[C@H](CC(C)C)NC(=O)[C@H](CCCNC(=N)N)NC(=O)[C@H](CO)NC(=O)[C@@H](NC(=O)[C@H](C)NC(=O)[C@@H]1CSSC[C@H](NC(=O)[C@H](CCCNC(=N)N)NC(=O)CC[C@H](NC(=O)CCCCCCCCCCCCCCCCCCC(=O)O)C(=O)O)C(=O)N[C@@H](CCC(=O)O)C(=O)N[C@@H]([C@@H](C)O)C(=O)N[C@@H](C)C(=O)N[C@@H]([C@@H](C)O)C(=O)N1)[C@@H](C)O [Compound 139, [19CD]-isoGlu-RC()ETATC()ATSRLAEFLHRSSSSF-Gly(Me)-A-Ile(Me)-LSSTEVGSETP-NH2] ({C20 diacid-γGlu}-RCETATCATSRLAEFLHRSSSSF[Sar]A[NMeI]LSSTEVGSETP-NH2; disulfide 2-7)	0.15	0.35	SS (SS indicates solubility ≥ 1mg/ml)	SS (SS indicates solubility ≥ 1mg/ml)	SS (SS indicates solubility ≥ 1mg/ml)	SS (SS indicates solubility ≥ 1mg/ml)	SS (SS indicates solubility ≥ 1mg/ml)	SS (SS indicates solubility ≥ 1mg/ml)	SS (SS indicates solubility ≥ 1mg/ml)
CC[C@H](C)[C@@H](C(=O)N[C@@H](CC(C)C)C(=O)N[C@@H](CO)C(=O)N[C@@H](CO)C(=O)N[C@H](C(=O)N[C@@H](CCC(=O)O)C(=O)N[C@H](C(=O)NCC(=O)N[C@@H](CO)C(=O)N[C@@H](CCC(=O)O)C(=O)N[C@H](C(=O)N1CCC[C@H]1C(N)=O)[C@@H](C)O)C(C)C)[C@@H](C)O)N(C)C(=O)[C@H](C)NC(=O)CN(C)C(=O)[C@H](Cc1ccccc1)NC(=O)[C@H](CO)NC(=O)[C@H](CO)NC(=O)[C@H](CO)NC(=O)[C@H](CO)NC(=O)[C@H](CCCNC(=N)N)NC(=O)[C@H](Cc1c[nH]cn1)NC(=O)[C@H](CC(C)C)NC(=O)[C@H](Cc1ccccc1)NC(=O)[C@H](CCC(=O)O)NC(=O)[C@H](C)NC(=O)[C@H](CC(C)C)NC(=O)[C@H](CCCNC(=N)N)NC(=O)[C@H](CO)NC(=O)[C@@H](NC(=O)[C@H](C)NC(=O)[C@@H]1CSSC[C@H](NC(=O)[C@H](CCCNC(=N)N)NC(=O)CC[C@H](NC(=O)CCCCCCCCCCCCCCCCCCC(=O)O)C(=O)O)C(=O)NCC(=O)N[C@@H]([C@@H](C)O)C(=O)N[C@@H](C)C(=O)N[C@@H]([C@@H](C)O)C(=O)N1)[C@@H](C)O [Compound 141, [19CD]-isoGlu-RC()GTATC()ATSRLAEFLHRSSSSF-Gly(Me)-A-Ile(Me)-LSSTEVGSETP-NH2] ({C20 diacid-γGlu}-RCGTATCATSRLAEFLHRSSSSF[Sar]A[NMeI]LSSTEVGSETP-NH2; disulfide 2-7)	0.11	0.13	SS (SS indicates solubility ≥ 1mg/ml)	SS (SS indicates solubility ≥ 1mg/ml)	SS (SS indicates solubility ≥ 1mg/ml)	SS (SS indicates solubility ≥ 1mg/ml)	SS (SS indicates solubility ≥ 1mg/ml)	SS (SS indicates solubility ≥ 1mg/ml)	SS (SS indicates solubility ≥ 1mg/ml)
